Results as given in PMC6929626, “PET/MRI enables simultaneous in vivo quantification of β-cell mass and function” (Theranostics, 2020).

Assays:
[1] = test system: isolated pancreatic islets; experiment: Glucose-dependent insulin secretion of isolated islets after in vivo MnCl2:Bicine (radioimmunoassay); design: species or system mice
Description: The chronic exposure to high concentrations of Mn can potentially lead to cytotoxic effects on heart, liver and brain [26]. We hypothesized that the early and late retention of Mn might impair the physiological integrity of the glucose-dependent insulin response of islet cells. To investigate the physiological function of the islets, glucose-dependent insulin secretion was measured in vitro 1 or 24 h after a single systemic in vivo administration of MnCl2:Bicine solution (75 µmol/kg) on a new group of mice (Table. 1, Group 4). Secretion assays were performed on isolated islets, followed by quantification of insulin content using radioimmunoassay. The response to glucose of each individual mouse was assessed by calculating the enhancement of insulin secretion between basal (3 mM) and stimulating glucose concentration (15 mM).
Before the isolation of islets, control and RIP1-Tag2 mice previously anesthetized using 1-2% isoflurane/O2 gas mixture (Vetland, Louisville, KY, USA) and intravenously injected with a bolus of MnCl2:Bicine solution (75 µmol/kg), analogously to the in vivo imaging protocol. […] The content of insulin in the supernatant was determined by radioimmunoassay using as insulin standards Millipore 8013-K (Merck, Darmstadt, DE). […]

[2] = LA-ICP-MS imaging of ^55Mn in pancreas sections, cross-validated with autoradiography; format: in vivo, mice
Description: The whole pancreata from control and transgenic RIP1-Tag2 mice were isolated after cervical dislocation under anesthesia. Then, the whole pancreata were embedded in O.C.T. (optimum cutting temperature) embedding compound (Sakura, Zoeterwonde, NL) and snap frozen at -20 °C. Subsequently, serial 20 µm cryosections were obtained using a Cryostat (Leica 1850, Leica GmbH, Wetzlar, DE) and exposed to a 35×43 cm Storage Phosphor Screen (445SI, Molecular Dynamics, Sunnyvale, CA, USA) at room temperature for 24 h and 48 h for animals sacrificed at 1 h and 24 h, respectively. Scanning of the phosphor imaging plate was performed using a Storm 840 scanner (STORM 840, Amersham Biosciences, Amersham, UK) with a spatial resolution of 50x50 µm^2 and analyzed using ImageJ software (US NIH, Bethesda, Maryland, USA). Thus, we calculated the main effect of the PET tracer uptake, expressed as islet-to-exocrine ratio to estimate the islet diameter identified as single spots throughout the pancreas sections in both groups (Fig. S3).
The autoradiography slides were scanned line-by-line at 60 µm laser spot size using an NWR 213 laser ablation system (New Wave Research, Fremont, CA, USA). […] The isotopes ^44Ca, ^65Cu, ^64Zn,^ 55Mn, ^13C were monitored among the exocrine and the endocrine tissue in the healthy and insulinoma mice. […]

effect of contrast agent accumulation on glucose-dependent insulin secretion response ([1]; islets isolated 1 h and 24 h after single i.v. 75 µmol/kg, 8-wk old control and RIP1-Tag2 mice): not affected
enhancement of insulin secretion, stimulating (15 mM) vs basal (3 mM) glucose ([1]; islets of 8-wk old control and RIP1-Tag2 mice isolated 1 or 24 h after single i.v. 75 µmol/kg, radioimmunoassay, n=3/3): 10-20 times
Substance: MnCl2:Bicine
spatial distribution of exogenous ^55Mn in pancreas sections ([2]; 1 h after injection, merged elemental images of ^55Mn, ^44Ca, ^64Zn, control and 13-wk RIP1-Tag2 mice): higher concentration of ^55Mn in the exocrine pancreas
spatial distribution of exogenous ^55Mn in pancreas sections ([2]; 24 h after injection, control and RIP1-Tag2 mice): only low levels of ^55Mn were found in the exocrine pancreas
